Experimental data from US9896445B2, “Heterocyclic inhibitors of ERK1 and ERK2 and their use in the treatment of cancer” (Asana Biosciences, LLC, priority 2015, dated 2018).

How the values were obtained:
ERK1 = target: T1, ERK1 (Homo sapiens, UniProt P27361); experiment: ERK1 HTRF (biochemical) assay
T1 construct: purchased Jubilant Biosys
Procedure: ERK1 and ERK2 HTRF (Biochemical) Assays
These assays employed a homogeneous time resolved fluorescence (HTRF) technique. […] The plate was incubated at room temperature for 60 min with shaking. […] The IC50 values (half maximal inhibitory concentration values) were subsequently determined using a sigmoidal dose-response curve (variable slope) in GraphPad Prism® 5 software.

ERK2 = target: T2, ERK2 (Homo sapiens, UniProt P28482); experiment: ERK2 HTRF (biochemical) assay
T2 construct: purchased Jubilant Biosys
T2 sequence (P28482 whole entry): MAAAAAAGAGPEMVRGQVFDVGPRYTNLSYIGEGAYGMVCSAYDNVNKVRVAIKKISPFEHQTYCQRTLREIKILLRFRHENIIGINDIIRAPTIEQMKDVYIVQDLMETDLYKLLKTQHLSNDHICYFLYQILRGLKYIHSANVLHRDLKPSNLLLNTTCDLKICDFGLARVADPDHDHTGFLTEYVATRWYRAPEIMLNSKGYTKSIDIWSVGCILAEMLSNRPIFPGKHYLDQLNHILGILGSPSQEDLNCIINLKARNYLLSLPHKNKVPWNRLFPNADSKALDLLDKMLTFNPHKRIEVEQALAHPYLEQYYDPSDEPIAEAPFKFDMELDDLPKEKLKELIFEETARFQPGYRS
Outline: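 Compounds were tested as half-log dilutions from 0.0005 to 10 uM in Tris pH 7.5/MgCl2 buffer, with a substrate mix of 1 uM biotin-MBP peptide and 24 uM ATP and an enzyme mix of 25 nM ERK2. Reaction ran 60 min at room temperature. Phospho-MBP was detected by HTRF (Eu-anti-phospho-MBP/SA-APC, 665/620 nm), and IC50 was fitted with a variable-slope sigmoidal curve.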

[1] = tested on: human lung carcinoma xenograft model (A549; harboring KRAS mutation); experiment: A549 human lung carcinoma xenograft model, tumor growth inhibition; type: in vivo, mice; settings: 50 mg/kg BID orally for 20 days
Procedure: In Vivo Studies in Tumor Xenograft Models
Tumor Cell Implantation and Randomization of Animals
Foxn1 nu/nu strain of female mice (obtained from Charles River Laboratories, USA), 8-10 weeks of age, body weight range 23-25 g, were used for the tumor xenograft efficacy studies. Human cancer cell lines (such as melanoma A375, colorectal HT29, pancreatic BxPC3, colorectal HCT116, and lung A549) were first grown in vitro, and then about five million (5×10^6) of these cells in 100 μL of serum free medium were mixed with an equal amount of matrigel, and the entire mixture was injected subcutaneously at the right flank region of mice. The tumors were measured with Vernier calipers periodically after the first week of injection. When the tumor volume reached 120-150 mm^3 (about 3-4 weeks after injection) the animals were randomized into different groups so that their tumor volume was approximately the same in all groups.
Determination of In Vivo Efficacy of Tumor Growth Inhibition
For PO dosing, the compounds were prepared in a formulation containing 0.5% Methyl cellulose and 0.01% Tween 80. For IV, SC, or IP dosing, the compounds were prepared in 6% solutol-ethanol (1:1), 6% DMSO and 88% saline. Animals were dosed with compounds prepared in specific formulations via PO, IP or SC route either QD or BID at the required doses. Tumors size and body weights were measured twice or thrice in a week. Tumors were harvested at the end of the study after euthanizing the animals according to approved protocols. […]
Changes in tumor volume (Δ volumes) for each treated (T) and control (C) group were calculated by subtracting the mean tumor volume on the first day of treatment (starting day) from the mean tumor volume on the specified observation day. […]
Percentage tumor growth inhibition was calculated as [100−% T/C]. Percentage body weight change was calculated as [(Body weight on specified observation day−Body weight on starting day)/Body weight on starting day]×100.

T1 sequence (P27361 whole entry): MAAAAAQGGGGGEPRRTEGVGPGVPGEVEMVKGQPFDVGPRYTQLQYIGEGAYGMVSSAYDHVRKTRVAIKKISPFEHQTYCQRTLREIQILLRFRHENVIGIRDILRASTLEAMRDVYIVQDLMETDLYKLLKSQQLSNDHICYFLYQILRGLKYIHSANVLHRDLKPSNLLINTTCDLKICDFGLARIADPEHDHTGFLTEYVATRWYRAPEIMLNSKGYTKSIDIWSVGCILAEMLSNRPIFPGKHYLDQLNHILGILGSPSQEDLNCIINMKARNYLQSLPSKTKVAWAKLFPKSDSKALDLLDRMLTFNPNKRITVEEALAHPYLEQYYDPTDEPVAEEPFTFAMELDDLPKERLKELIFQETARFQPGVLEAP

Compound	IC50 (ERK1; HTRF) [nM]	melting point [°C]	IC50 (ERK2; HTRF) [nM]	IC50 (ERK1; HTRF biochemical assay) [nM]	IC50 (ERK2; HTRF biochemical assay) [nM]	body weight loss [1]
Cc1cnc(Nc2ccc3c(c2)OCO3)nc1-n1cc(NC(=O)N[C@H](CO)c2ccccc2)cn1 [Compound 55, (S)-1-(1-(2-(benzo[d][1,3]dioxol-5-ylamino)-5-methylpyrimidin-4-yl)-1H-pyrazol-4-yl)-3-(2-hydroxy-1-phenylethyl)urea]	50 to 100	208.3	50 to 100	–	–	–
O=C(NC(CO)c1cccc(Cl)c1)c1cn(-c2ccnc(Nc3ccccc3)c2)cn1 (stereo not shown) [Compound 77, N-(1-(3-chlorophenyl)-2-hydroxyethyl)-1-(2-(phenylamino)pyridin-4-yl)-1H-imidazole-4-carboxamide]	< 50	130	≤ 50	–	–	–
Cc1cnc(Nc2ccc(F)cc2)cc1-n1ccc(C(=O)NC(CN)c2cccc(Cl)c2)c1 (stereo not shown) [Compound 159, N-(2-Amino-1-(3-chlorophenyl)ethyl)-1-(2-((4-fluorophenyl)amino)-5-methylpyridin-4-yl)-1H-pyrrole-3-carboxamide]	50 to 100	118.1	≤ 50	–	–	–
Cc1cnc(Nc2ccc(F)cc2)cc1-n1cnc(C(=O)NC(CN)c2ccccc2)c1 (stereo not shown) [Compound 191, N-(2-amino-1-phenylethyl)-1-(2-((4-fluorophenyl)amino)-5-methylpyridin-4-yl)-1H-imidazole-4-carboxamide]	< 50	154.7	50 to 100	–	–	–
Cc1cnc(N[C@H]2CCOC2)nc1-n1cnc(C(=O)N[C@H](CO)c2cccc(Cl)c2)c1 [Compound 192, N-((S)-1-(3-Chlorophenyl)-2-hydroxyethyl)-1-(5-methyl-2-(((S)-tetra-hydrofuran-3-yl)amino)pyrimidin-4-yl)-1H-imidazole-4-carboxamide]	< 50	117	≤ 50	–	–	–
Cc1cnc(NC2CCOCC2)nc1-n1cnc(C(=O)N[C@H](CN)c2cccc(Cl)c2)c1.O=S(=O)(O)c1ccccc1 [Example 300, (S)-N-(2-amino-1-(3-chlorophenyl)-ethyl)-1-(5-methyl-2-((tetrahydro-2H-pyran-4-yl)amino)-pyrimidin-4-yl)-1H-imidazole-4-carboxamide benzenesulfonic acid salt]	–	–	–	–	–	no significant body weight loss
Cc1cnc(NC2CCOCC2)nc1-n1cnc(C(=O)N[C@H](CNCC2CC2)c2cccc(Cl)c2)c1 [Example 339, 1-[5-Methyl-2-(tetrahydro-pyran-4-ylamino)-pyrimidin-4-yl]-1H-imidazole-4-carboxylic acid [(S)-1-(3-chloro-phenyl)-2-(cyclopropylmethyl-amino)-ethyl]-amide]	–	–	–	< 50	≤ 50	–
CC(=O)OCc1c(Cl)cccc1CNC(=O)c1cn(-c2nc(NC3CCOCC3)ncc2C)cn1 [Example 340, 2-chloro-6-((1-(5-methyl-2-((tetrahydro-2H-pyran-4-yl)amino)-pyrimidin-4-yl)-1H-imidazole-4-carboxamido)-methyl)benzyl acetate]	–	–	–	< 50	≤ 50	–
Cc1cnc(NC2CCOCC2)nc1-n1cnc(C(=O)NC(C)(C)c2cccc(Cl)c2CO)c1 [Example 341, N-(2-(3-chloro-2-(hydroxymethyl)-phenyl)propan-2-yl)-1-(5-methyl-2-((tetrahydro-2H-pyran-4-yl)amino)-pyrimidin-4-yl)-1H-imidazole-4-carboxamide]	–	–	–	< 50	≤ 50	–
CC(=O)OCc1c(Cl)cccc1CNC(=O)c1cn(-c2nc(N[C@H]3CCOC3)ncc2C)cn1 [Example 342, (S)-2-chloro-6-((1-(5-methyl-2-((tetrahydrofuran-3-yl)amino)pyrimidin-4-yl)-1H-imidazole-4-carboxamido)-methyl)benzyl acetate]	–	–	–	< 50	≤ 50	–
Cc1cnc(NC2CCOCC2)nc1-n1cnc(C(=O)NCc2ccc(Cl)cc2CO)c1 [Example 343, N-(4-chloro-2-hydroxymethyl-benzyl)-1-(5-methyl-2-((tetrahydro-2H-pyran-4-yl)amino)-pyrimidin-4-yl)-1H-imidazole-4-carboxamide]	–	–	–	< 50	≤ 50	–
Cc1cnc(N[C@@H]2CCOC2)nc1-n1cnc(C(=O)NCc2cccc(Cl)c2CO)c1 [Example 344, (R)-N-(3-chloro-2-(hydroxymethyl)-benzyl)-1-(5-methyl-2-((tetrahydrofuran-3-yl)amino)-pyrimidin-4-yl)-1H-imidazole-4-carboxamide]	–	–	–	< 50	≤ 50	–
CNCCNC[C@@H](NC(=O)c1cn(-c2nc(NC3CCOCC3)ncc2C)cn1)c1cccc(Cl)c1 [Example 345, ((S)-N-(1-(3-chlorophenyl)-2-((2-(methylamino)ethyl)amino)ethyl)-1-(5-methyl-2-((tetrahydro-2H-pyran-4-yl)amino)-pyrimidin-4-yl)-1H-imidazole-4-carboxamide2,2,2-trifluoroacetate]	–	–	–	< 50	≤ 50	–
CCC(=O)OCc1c(Cl)cccc1CNC(=O)c1cn(-c2nc(NC3CCOCC3)ncc2C)cn1 [Example 348, 2-chloro-6-((1-(5-methyl-2-((tetrahydro-2H-pyran-4-yl)amino)-pyrimidin-4-yl)-1H-imidazole-4-carboxamido)-methyl)benzyl-propionate]	–	–	–	< 50	≤ 50	–

Further lines, with some results ahead:

IC50 (ERK1; HTRF) [nM]	melting point [°C]	IC50 (ERK2; HTRF) [nM]	IC50 (ERK1; HTRF biochemical assay) [nM]	IC50 (ERK2; HTRF biochemical assay) [nM]	Compound	body weight loss [1]
–	–	–	< 50	≤ 50	Cc1cnc(Nc2ccc3c(c2)OC(F)(F)O3)nc1-n1cnc(C(=O)NCc2cccc(Cl)c2CO)c1 [Example 332, N-(3-chloro-2-(hydroxymethyl)-benzyl)-1-(2-((2,2-difluorobenzo[d] [1,3]dioxol-5-yl)amino)-5-methylpyrimidin-4-yl)-1H-imidazole-4-carboxamide]	–
–	–	–	< 50	≤ 50	Cc1cnc(NC2CCOCC2)nc1-n1cnc(C(=O)N[C@H](CNCCO)c2cccc(Cl)c2)c1 [Example 333, (S)-N-(1-(3-chlorophenyl)-2-((2-hydroxyethyl)amino)ethyl)-1-(5-methyl-2-((tetrahydro-2H-pyran-4-yl)amino)-pyrimidin-4-yl)-1H-imidazole-4-carboxamide]	–
–	–	–	< 50	≤ 50	Cc1cnc(NC2CCOCC2)nc1-n1cnc(C(=O)NCc2cccc(Cl)c2CCO)c1 [Example 334, N-(3-chloro-2-hydroxyethylbenzyl)-1-(5-methyl-2-((tetrahydro-2H-pyran-4-yl)amino)-pyrimidin-4-yl)-1H-imidazole-4-carboxamide]	–
–	–	–	< 50	≤ 50	Cc1cnc(NC2CCOCC2)nc1-n1cnc(C(=O)NCc2cccc(CO)c2Cl)c1 [Example 335, N-(2-chloro-3-(hydroxymethyl)-benzyl)-1-(5-methyl-2-((tetrahydro-2H-pyran-4-yl)amino)-pyrimidin-4-yl)-1H-imidazole-4-carboxamide]	–
–	–	–	< 50	≤ 50	CC[C@H](CO)Nc1ncc(C)c(-n2cnc(C(=O)NCc3cccc(Cl)c3CO)c2)n1 [Example 336, (R)-N-(3-chloro-2-(hydroxymethyl)-benzyl)-1-(2-((1-hydroxybutan-2-yl)amino)-5-methylpyrimidin-4-yl)-1H-imidazole-4-carboxamide]	–
–	–	–	< 50	≤ 50	Cc1cnc(NC2CCOCC2)nc1-n1cnc(C(=O)N[C@H](CNCC(C)(C)C)c2cccc(Cl)c2)c1 [Example 337, (S)-N-(1-(3-chlorophenyl)-2-(neopentylamino)-ethyl)-1-(5-methyl-2-((tetrahydro-2H-pyran-4-yl)amino)-pyrimidin-4-yl)-1H-imidazole-4-carboxamide]	–
–	–	–	< 50	≤ 50	Cc1cnc(N[C@H]2CCOC2)nc1-n1cnc(C(=O)NCc2cccc(CO)c2Cl)c1 [Example 338, (S)-N-(2-chloro-3-(hydroxymethyl)-benzyl)-1-(5-methyl-2-((tetrahydrofuran-3-yl)amino)-pyrimidin-4-yl)-1H-imidazole-4-carboxamide]	–
